Experiments:
[1] = target: Calcium/calmodulin-dependent protein kinase type II subunit alpha (Homo sapiens) (UniProt Q9UQM7); assay: CaMKIIalpha(h) Kinase panel; settings: Compound concentration 1.0 uM, tested as the 2H-labelled form
[2] = target: Serine/threonine-protein kinase 17A (Homo sapiens) (UniProt Q9UEE5); assay: DRAK1(h) Kinase panel; settings: Compound concentration 1.0 uM, tested as the 2H-labelled form
[3] = target: Platelet-derived growth factor receptor alpha (Homo sapiens) (UniProt P16234); assay: PDGFRalpha(h) Kinase panel; settings: Compound concentration 1.0 uM, tested as the 2H-labelled form
[4] = target: Muscarinic acetylcholine receptor M5 (Homo sapiens) (UniProt P08912); settings: Compound concentration 10.0 uM, tested as the 2H-labelled form
[5] = target: Receptor-interacting serine/threonine-protein kinase 2 (Homo sapiens) (UniProt O43353); assay: RIPK2(h) Kinase panel; settings: Compound concentration 1.0 uM, tested as the 2H-labelled form
Chain of Receptor-interacting serine/threonine-protein kinase 2 (Homo sapiens) (O43353 whole entry): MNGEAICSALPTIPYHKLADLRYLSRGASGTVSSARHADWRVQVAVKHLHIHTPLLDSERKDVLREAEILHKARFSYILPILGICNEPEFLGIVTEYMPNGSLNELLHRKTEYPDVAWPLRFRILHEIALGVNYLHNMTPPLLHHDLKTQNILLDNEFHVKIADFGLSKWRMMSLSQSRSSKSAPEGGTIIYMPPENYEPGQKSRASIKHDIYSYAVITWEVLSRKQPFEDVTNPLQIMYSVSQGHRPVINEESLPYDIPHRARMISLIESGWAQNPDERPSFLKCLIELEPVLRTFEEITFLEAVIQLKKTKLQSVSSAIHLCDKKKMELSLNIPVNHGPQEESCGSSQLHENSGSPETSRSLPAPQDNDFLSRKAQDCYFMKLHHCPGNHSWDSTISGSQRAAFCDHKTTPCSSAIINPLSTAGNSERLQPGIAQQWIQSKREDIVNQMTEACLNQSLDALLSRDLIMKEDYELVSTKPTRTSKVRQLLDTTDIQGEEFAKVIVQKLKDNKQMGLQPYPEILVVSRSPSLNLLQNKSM

[6] = target: Tyrosine-protein kinase BTK (Homo sapiens) (UniProt Q06187); assay: BTK(h) Kinase panel; settings: Compound concentration 1.0 uM, tested as the 2H-labelled form
[7] = target: Protein kinase C eta type (Homo sapiens) (UniProt P24723); assay: PKCeta (h) Kinase panel; settings: Compound concentration 1.0 uM, tested as the 2H-labelled form
[8] = target: Phosphatidylinositol 4-phosphate 5-kinase type-1 alpha (Homo sapiens) (UniProt Q99755); assay: PIP5K1a(h) Kinase panel; settings: Compound concentration 1.0 uM, tested as the 2H-labelled form
[9] = target: 5-hydroxytryptamine receptor 2B (Homo sapiens) (UniProt P41595); settings: Compound concentration 10.0 uM, tested as the 2H-labelled form
[10] = target: Receptor tyrosine-protein kinase erbB-4 (Homo sapiens) (UniProt Q15303); assay: ErbB4(h) Kinase panel; settings: Compound concentration 1.0 uM, tested as the 2H-labelled form
Chain of Receptor tyrosine-protein kinase erbB-4 (Homo sapiens) (Q15303 whole entry): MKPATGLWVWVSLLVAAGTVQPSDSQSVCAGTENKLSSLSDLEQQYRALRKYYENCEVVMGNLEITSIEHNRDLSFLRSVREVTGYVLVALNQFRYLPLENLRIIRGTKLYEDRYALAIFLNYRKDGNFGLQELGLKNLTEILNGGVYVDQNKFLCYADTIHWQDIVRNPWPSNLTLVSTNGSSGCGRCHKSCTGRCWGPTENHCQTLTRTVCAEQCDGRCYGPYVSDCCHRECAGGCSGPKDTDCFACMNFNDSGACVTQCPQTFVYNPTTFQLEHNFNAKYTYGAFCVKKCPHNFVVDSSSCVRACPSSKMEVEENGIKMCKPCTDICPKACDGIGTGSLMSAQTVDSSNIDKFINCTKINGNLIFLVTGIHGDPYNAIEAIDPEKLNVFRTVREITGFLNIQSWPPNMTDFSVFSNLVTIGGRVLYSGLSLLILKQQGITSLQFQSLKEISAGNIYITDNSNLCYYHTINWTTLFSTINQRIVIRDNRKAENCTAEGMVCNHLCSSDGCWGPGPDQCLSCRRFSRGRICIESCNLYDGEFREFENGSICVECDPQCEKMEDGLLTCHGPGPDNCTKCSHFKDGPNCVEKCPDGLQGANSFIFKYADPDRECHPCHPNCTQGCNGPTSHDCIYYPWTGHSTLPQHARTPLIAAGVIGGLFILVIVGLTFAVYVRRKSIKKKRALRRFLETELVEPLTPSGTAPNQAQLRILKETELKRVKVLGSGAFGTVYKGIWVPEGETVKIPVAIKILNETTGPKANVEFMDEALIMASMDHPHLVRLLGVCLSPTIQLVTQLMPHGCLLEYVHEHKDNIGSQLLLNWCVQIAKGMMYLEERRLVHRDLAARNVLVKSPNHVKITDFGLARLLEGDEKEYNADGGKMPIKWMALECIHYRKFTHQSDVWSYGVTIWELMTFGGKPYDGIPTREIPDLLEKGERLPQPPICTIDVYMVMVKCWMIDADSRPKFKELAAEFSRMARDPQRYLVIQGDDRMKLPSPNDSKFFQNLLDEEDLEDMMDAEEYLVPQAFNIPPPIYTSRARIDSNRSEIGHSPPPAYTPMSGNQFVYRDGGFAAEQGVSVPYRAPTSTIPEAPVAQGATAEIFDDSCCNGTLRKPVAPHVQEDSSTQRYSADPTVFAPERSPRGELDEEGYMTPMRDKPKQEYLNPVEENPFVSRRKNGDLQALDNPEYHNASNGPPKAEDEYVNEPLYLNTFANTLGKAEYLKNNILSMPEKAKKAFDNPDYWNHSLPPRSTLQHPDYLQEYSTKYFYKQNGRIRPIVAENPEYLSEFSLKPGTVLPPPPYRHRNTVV

[11] = target: Cell division cycle 7-related protein kinase (Homo sapiens) (UniProt O00311); assay: Cdc7/cyclinB1(h) Kinase panel; settings: Compound concentration 1.0 uM, tested as the 2H-labelled form
Chain of Cell division cycle 7-related protein kinase (Homo sapiens) (O00311 whole entry, looked up): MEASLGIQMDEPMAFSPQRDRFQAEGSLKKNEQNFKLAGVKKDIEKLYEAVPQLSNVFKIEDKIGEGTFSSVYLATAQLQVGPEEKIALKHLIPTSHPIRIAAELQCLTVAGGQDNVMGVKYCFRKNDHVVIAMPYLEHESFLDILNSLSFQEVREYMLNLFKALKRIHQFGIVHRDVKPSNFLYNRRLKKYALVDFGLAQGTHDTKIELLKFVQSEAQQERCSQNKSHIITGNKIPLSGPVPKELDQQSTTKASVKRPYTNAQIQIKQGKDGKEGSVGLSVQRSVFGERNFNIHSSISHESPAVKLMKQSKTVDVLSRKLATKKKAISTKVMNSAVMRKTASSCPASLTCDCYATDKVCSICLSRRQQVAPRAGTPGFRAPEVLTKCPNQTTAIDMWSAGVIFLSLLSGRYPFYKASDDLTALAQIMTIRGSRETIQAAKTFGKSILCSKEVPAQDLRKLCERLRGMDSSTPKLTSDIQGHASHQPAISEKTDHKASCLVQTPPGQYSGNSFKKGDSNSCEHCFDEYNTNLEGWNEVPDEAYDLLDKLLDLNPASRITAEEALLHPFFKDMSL

[12] = target: Mitogen-activated protein kinase 1 (Homo sapiens) (UniProt P28482); assay: MAPK1(h) Kinase panel; settings: Compound concentration 1.0 uM, tested as the 2H-labelled form
[13] = target: Dual specificity protein kinase CLK4 (Homo sapiens) (UniProt Q9HAZ1); assay: CLK4(h) Kinase panel; settings: Compound concentration 1.0 uM, tested as the 2H-labelled form
[14] = target: Ephrin type-B receptor 3 (Homo sapiens) (UniProt P54753); assay: EphB3(h) Kinase panel; settings: Compound concentration 1.0 uM, tested as the 2H-labelled form
[15] = target: Cyclin-dependent kinase-like 1 (Homo sapiens) (UniProt Q00532); assay: CDKL1(h) Kinase panel; settings: Compound concentration 1.0 uM, tested as the 2H-labelled form
[16] = target: NUAK family SNF1-like kinase 1 (Homo sapiens) (UniProt O60285); assay: ARK5(h) Kinase panel; settings: Compound concentration 1.0 uM, tested as the 2H-labelled form
[17] = target: Ephrin type-A receptor 3 (Homo sapiens) (UniProt P29320); assay: EphA3(h) Kinase panel; settings: Compound concentration 1.0 uM, tested as the 2H-labelled form
Chain of Ephrin type-A receptor 3 (Homo sapiens) (P29320 whole entry): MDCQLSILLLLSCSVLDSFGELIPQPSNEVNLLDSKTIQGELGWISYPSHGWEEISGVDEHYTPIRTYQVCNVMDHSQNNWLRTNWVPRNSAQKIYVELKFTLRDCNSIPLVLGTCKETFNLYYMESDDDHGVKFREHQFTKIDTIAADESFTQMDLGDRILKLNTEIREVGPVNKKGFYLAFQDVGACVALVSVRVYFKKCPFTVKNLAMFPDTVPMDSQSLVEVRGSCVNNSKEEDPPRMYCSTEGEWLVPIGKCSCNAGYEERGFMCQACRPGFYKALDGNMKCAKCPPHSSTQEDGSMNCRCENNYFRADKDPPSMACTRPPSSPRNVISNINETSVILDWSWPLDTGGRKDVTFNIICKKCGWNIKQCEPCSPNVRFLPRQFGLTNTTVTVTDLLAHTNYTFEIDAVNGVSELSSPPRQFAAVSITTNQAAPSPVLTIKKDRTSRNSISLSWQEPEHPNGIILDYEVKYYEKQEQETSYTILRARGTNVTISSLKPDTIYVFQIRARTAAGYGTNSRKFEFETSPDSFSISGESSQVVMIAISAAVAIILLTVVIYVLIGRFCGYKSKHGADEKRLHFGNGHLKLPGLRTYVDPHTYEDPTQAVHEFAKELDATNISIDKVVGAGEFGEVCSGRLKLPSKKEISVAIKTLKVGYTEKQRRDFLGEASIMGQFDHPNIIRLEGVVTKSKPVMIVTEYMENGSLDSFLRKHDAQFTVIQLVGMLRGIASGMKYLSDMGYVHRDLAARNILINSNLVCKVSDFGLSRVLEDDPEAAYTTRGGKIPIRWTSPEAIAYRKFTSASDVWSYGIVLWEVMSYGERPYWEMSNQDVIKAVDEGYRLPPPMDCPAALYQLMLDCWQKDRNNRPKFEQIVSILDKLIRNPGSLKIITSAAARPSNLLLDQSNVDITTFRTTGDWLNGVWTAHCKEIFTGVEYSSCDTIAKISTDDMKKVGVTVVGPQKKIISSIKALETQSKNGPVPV

[18] = target: Mitogen-activated protein kinase kinase kinase kinase 4 (Homo sapiens) (UniProt O95819); assay: MAP4K4(h) Kinase panel; settings: Compound concentration 1.0 uM, tested as the 2H-labelled form
[19] = target: Homeodomain-interacting protein kinase 4 (Homo sapiens) (UniProt Q8NE63); assay: HIPK4(h) Kinase panel; settings: Compound concentration 1.0 uM, tested as the 2H-labelled form
[20] = target: Cyclin-dependent kinase 2 (Homo sapiens) (UniProt P24941); assay: CDK2/cyclinE(h) Kinase panel; settings: Compound concentration 1.0 uM, tested as the 2H-labelled form
[21] = target: Serine/threonine-protein kinase Nek9 (Homo sapiens) (UniProt Q8TD19); assay: NEK9(h) Kinase panel; settings: Compound concentration 1.0 uM, tested as the 2H-labelled form
[22] = target: Sigma non-opioid intracellular receptor 1 (Homo sapiens) (UniProt Q99720); settings: Compound concentration 10.0 uM, tested as the 2H-labelled form
Chain of Sigma non-opioid intracellular receptor 1 (Homo sapiens) (Q99720 whole entry): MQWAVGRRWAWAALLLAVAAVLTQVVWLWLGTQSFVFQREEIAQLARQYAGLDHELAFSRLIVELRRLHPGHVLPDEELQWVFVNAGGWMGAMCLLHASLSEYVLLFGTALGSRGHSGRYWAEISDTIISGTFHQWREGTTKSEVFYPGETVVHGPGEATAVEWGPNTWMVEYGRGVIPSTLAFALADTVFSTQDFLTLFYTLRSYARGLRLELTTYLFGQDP

[23] = target: Mitogen-activated protein kinase kinase kinase 5 (Homo sapiens) (UniProt Q99683); assay: ASK1(h) Kinase panel; settings: Compound concentration 1.0 uM, tested as the 2H-labelled form
[24] = target: Tyrosine-protein kinase Fer (Homo sapiens) (UniProt P16591); assay: Fer(h) Kinase panel; settings: Compound concentration 1.0 uM, tested as the 2H-labelled form
[25] = target: Dual specificity mitogen-activated protein kinase kinase 1 (Homo sapiens) (UniProt Q02750); assay: MEK1(h) Kinase panel; settings: Compound concentration 1.0 uM, tested as the 2H-labelled form
[26] = target: Homeodomain-interacting protein kinase 1 (Homo sapiens) (UniProt Q86Z02); assay: HIPK1(h) Kinase panel; settings: Compound concentration 1.0 uM, tested as the 2H-labelled form
[27] = target: D(1A) dopamine receptor (Homo sapiens) (UniProt P21728); settings: Compound concentration 10.0 uM, tested as the 2H-labelled form
[28] = target: MAP kinase-activated protein kinase 2 (Homo sapiens) (UniProt P49137); assay: MAPKAP-K2(h) Kinase panel; settings: Compound concentration 1.0 uM, tested as the 2H-labelled form
Chain of MAP kinase-activated protein kinase 2 (Homo sapiens) (P49137 whole entry, looked up): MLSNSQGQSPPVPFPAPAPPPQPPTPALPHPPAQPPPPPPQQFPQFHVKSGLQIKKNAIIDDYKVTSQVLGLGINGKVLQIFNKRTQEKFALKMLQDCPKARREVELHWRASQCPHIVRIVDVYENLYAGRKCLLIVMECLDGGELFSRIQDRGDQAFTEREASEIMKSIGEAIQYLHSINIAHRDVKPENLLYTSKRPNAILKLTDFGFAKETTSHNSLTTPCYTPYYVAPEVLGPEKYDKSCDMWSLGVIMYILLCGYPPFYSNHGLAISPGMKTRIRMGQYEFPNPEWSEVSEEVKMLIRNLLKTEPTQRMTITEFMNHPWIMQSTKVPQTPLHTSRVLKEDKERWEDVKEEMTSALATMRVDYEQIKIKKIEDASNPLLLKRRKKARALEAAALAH

[29] = target: Tyrosine-protein kinase Fgr (Homo sapiens) (UniProt P09769); assay: Fgr(h) Kinase panel; settings: Compound concentration 1.0 uM, tested as the 2H-labelled form
[30] = target: Ephrin type-A receptor 4 (Homo sapiens) (UniProt P54764); assay: EphA4(h) Kinase panel; settings: Compound concentration 1.0 uM, tested as the 2H-labelled form
[31] = target: Testis-specific serine/threonine-protein kinase 3 (Homo sapiens) (UniProt Q96PN8); assay: TSSK3(h) Kinase panel; settings: Compound concentration 1.0 uM, tested as the 2H-labelled form
[32] = target: Macrophage colony-stimulating factor 1 receptor (Homo sapiens, UniProt P07333); assay: Fms(h) Kinase panel; settings: Compound concentration 1.0 uM, tested as the 2H-labelled form
[33] = target: Death-associated protein kinase 2 (Homo sapiens) (UniProt Q9UIK4); assay: DAPK2(h) Kinase panel; settings: Compound concentration 1.0 uM, tested as the 2H-labelled form
[34] = target: FKBP12A/mTOR (Homo sapiens) (UniProt P62942+P42345); assay: mTOR/FKBP12(h) Kinase panel; assay type: protein-complex assay; settings: Compound concentration 1.0 uM, tested as the 2H-labelled form
[35] = target: Protein kinase C beta type (Homo sapiens) (UniProt P05771); assay: PKCbetaI (h) Kinase panel; settings: Compound concentration 1.0 uM, tested as the 2H-labelled form
Chain of Protein kinase C beta type (Homo sapiens) (P05771 2-671 limits assumed): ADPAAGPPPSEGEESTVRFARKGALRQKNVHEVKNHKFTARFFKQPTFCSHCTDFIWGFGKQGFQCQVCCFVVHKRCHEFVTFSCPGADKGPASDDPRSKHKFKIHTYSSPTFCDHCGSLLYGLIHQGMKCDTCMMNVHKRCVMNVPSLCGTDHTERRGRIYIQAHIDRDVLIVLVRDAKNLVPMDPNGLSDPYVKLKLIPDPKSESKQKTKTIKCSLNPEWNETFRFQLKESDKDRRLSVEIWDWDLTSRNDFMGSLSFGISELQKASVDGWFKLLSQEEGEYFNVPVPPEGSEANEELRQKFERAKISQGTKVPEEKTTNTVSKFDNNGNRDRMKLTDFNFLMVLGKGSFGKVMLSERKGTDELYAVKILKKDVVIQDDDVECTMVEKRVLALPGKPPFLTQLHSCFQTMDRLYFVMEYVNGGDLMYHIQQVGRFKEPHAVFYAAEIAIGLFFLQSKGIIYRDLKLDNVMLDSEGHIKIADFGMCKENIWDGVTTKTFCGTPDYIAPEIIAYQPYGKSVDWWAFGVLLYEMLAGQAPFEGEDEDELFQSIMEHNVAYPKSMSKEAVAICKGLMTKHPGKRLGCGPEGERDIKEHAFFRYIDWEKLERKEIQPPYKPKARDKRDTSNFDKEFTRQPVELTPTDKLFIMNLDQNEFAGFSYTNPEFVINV

[36] = target: Tyrosine-protein kinase receptor TYRO3 (Homo sapiens) (UniProt Q06418); assay: Rse(h) Kinase panel; settings: Compound concentration 1.0 uM, tested as the 2H-labelled form
[37] = target: Cyclin-dependent kinase 16 (Homo sapiens) (UniProt Q00536); assay: CDK16/cyclinY(h) Kinase panel; settings: Compound concentration 1.0 uM, tested as the 2H-labelled form
[38] = target: Alpha-1A adrenergic receptor (Homo sapiens) (UniProt P35348); settings: Compound concentration 10.0 uM, tested as the 2H-labelled form
[39] = target: Mitogen-activated protein kinase kinase kinase 9 (Homo sapiens) (UniProt P80192); assay: MLK1(h) Kinase panel; settings: Compound concentration 1.0 uM, tested as the 2H-labelled form
[40] = target: 5-hydroxytryptamine receptor 1D (Homo sapiens) (UniProt P28221); settings: Compound concentration 10.0 uM, tested as the 2H-labelled form
[41] = target: Inhibitor of nuclear factor kappa-B kinase subunit alpha (Homo sapiens) (UniProt O15111); assay: IKKalpha(h) Kinase panel; settings: Compound concentration 1.0 uM, tested as the 2H-labelled form
[42] = target: Mitogen-activated protein kinase 14 (Homo sapiens, UniProt Q16539); assay: SAPK2a(h) Kinase panel; settings: Compound concentration 1.0 uM, tested as the 2H-labelled form
[43] = target: cGMP-dependent protein kinase 2 (Homo sapiens) (UniProt Q13237); assay: PRKG2(h) Kinase panel; settings: Compound concentration 1.0 uM, tested as the 2H-labelled form
[44] = target: Tyrosine-protein kinase Mer (Homo sapiens) (UniProt Q12866); assay: Mer(h) Kinase panel; settings: Compound concentration 1.0 uM, tested as the 2H-labelled form
[45] = target: Ribosomal protein S6 kinase alpha-2 (Homo sapiens) (UniProt Q15349); assay: Rsk3(h) Kinase panel; settings: Compound concentration 1.0 uM, tested as the 2H-labelled form
[46] = target: Phosphatidylinositol 4-phosphate 3-kinase C2 domain-containing subunit alpha (Homo sapiens) (UniProt O00443); assay: PI3KC2a(h) Kinase panel; settings: Compound concentration 1.0 uM, tested as the 2H-labelled form
[47] = target: Tyrosine-protein kinase Lck (Homo sapiens) (UniProt P06239); assay: Lck(h) Kinase panel; settings: Compound concentration 1.0 uM, tested as the 2H-labelled form
[48] = target: Cyclin-dependent kinase 7 (Homo sapiens) (UniProt P50613); assay: CDK7/cyclinH/MAT1(h) Kinase panel; settings: Compound concentration 1.0 uM, tested as the 2H-labelled form
[49] = target: Cyclin-dependent kinase 4 (Homo sapiens) (UniProt P11802); assay: CDK4/cyclinD3(h) Kinase panel; settings: Compound concentration 1.0 uM, tested as the 2H-labelled form
Chain of Cyclin-dependent kinase 4 (Homo sapiens) (P11802 whole entry): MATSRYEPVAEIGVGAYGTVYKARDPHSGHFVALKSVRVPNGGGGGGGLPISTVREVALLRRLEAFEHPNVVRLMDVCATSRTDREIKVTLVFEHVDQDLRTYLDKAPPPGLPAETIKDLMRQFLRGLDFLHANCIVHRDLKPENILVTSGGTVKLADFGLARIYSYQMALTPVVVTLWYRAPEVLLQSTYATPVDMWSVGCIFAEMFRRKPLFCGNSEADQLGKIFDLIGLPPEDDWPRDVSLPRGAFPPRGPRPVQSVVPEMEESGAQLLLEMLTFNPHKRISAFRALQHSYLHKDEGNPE

[50] = target: Phosphatidylinositol 5-phosphate 4-kinase type-2 alpha (Homo sapiens) (UniProt P48426); assay: PIP4K2a(h) Kinase panel; settings: Compound concentration 1.0 uM, tested as the 2H-labelled form
[51] = target: 5-hydroxytryptamine receptor 7 (Homo sapiens) (UniProt P34969); settings: Compound concentration 10.0 uM, tested as the 2H-labelled form

inhibition [1]: 0%
inhibition [2]: 14%
inhibition [3]: 2%
inhibition [4]: -5.3%
inhibition [5]: 2%
inhibition [6]: -4%
inhibition [7]: 19%
inhibition [8]: -4%
inhibition [9]: 6.01%
inhibition [10]: 19%
inhibition [11]: 10%
inhibition [12]: 20%
inhibition [13]: 15%
inhibition [14]: 14%
inhibition [15]: 11%
inhibition [16]: 1%
inhibition [17]: -6%
inhibition [18]: 21%
inhibition [19]: 8%
inhibition [20]: 7%
inhibition [22]: 15.1%
inhibition [23]: 12%
inhibition [24]: 20%
inhibition [25]: 4%
inhibition [26]: 3%
inhibition [27]: -1.8%
inhibition [28]: -1%
inhibition [29]: 7%
inhibition [30]: 0%
inhibition [31]: 2%
inhibition [32]: 0%
inhibition [34]: 5%
inhibition [35]: 4%
inhibition [36]: 9%
inhibition [37]: 12%
inhibition [38]: 0.58%
inhibition [39]: -3%
inhibition [40]: 33.4%
inhibition [41]: 8%
inhibition [42]: 12%
inhibition [43]: 11%
inhibition [44]: 6%
inhibition [45]: -7%
inhibition [46]: -2%
inhibition [47]: 17%
inhibition [48]: -8%
inhibition [49]: 13%
inhibition [50]: 0%
inhibition [51]: -3.57%
SMILES: CC1(C)Cn2nc(-c3ccc(F)cn3)c(-c3ccnc4[nH]ncc34)c2CO1
inhibition [21]: 6%
inhibition [33]: -7%
